According to the RepoRT retention time repository:

experiment: HILIC, Waters ACQUITY UPLC BEH Amide, 100 × 2.1 mm, 1.7 µm; A: water + 0.125% formic acid + 10 mM ammonium formate; B: 5% water + 95% acetonitrile + 0.125% formic acid + 10 mM ammonium formate; gradient (min/%B) 0/100 2/100 7.7/70 9.5/40 10.25/30 12.75/100 17/100; details: stereoisomer not certain

Row | Compound | LC retention time [min]
1 | Oc1ccc(C2CNCCc3c2cc(O)c(O)c3Cl)cc1 (stereo not given) [Fenoldopam] | 5.68
2 | OCCN1CCN(CCCN2c3ccccc3Sc3ccc(C(F)(F)F)cc32)CC1 [Fluphenazine] | 2.74
3 | CNC(Cc1ccc(O)cc1)C(=O)O (stereo not given) [N-Methyltyrosine] | 6.79
4 | Cn1cc(C2OC(CO)C(O)C2O)c(=O)[nH]c1=O (stereo not given) [1-Methylpseudouridine] | 4.99
5 | CC(=O)NC1C(O)CC(O)(C(=O)O)OC1C(O)C(O)CO (stereo not given) [N-Acetylneuraminic acid] | 9.26
6 | O=C(O)C(=O)Cc1c[nH]c2ccccc12 [Indole-3-pyruvic acid] | 5.11
7 | CC(O)C(NC(=O)C(N)CCC(=O)O)C(=O)O (stereo not given) [Glu-Thr] | 9.44
8 | NCCCCCN [Cadaverine] | 8.99
9 | CCCCc1oc2ccccc2c1C(=O)c1cc(I)c(OCCN(CC)CC)c(I)c1 [Amiodarone] | 1.87
10 | CN1C(=O)CN=C(c2ccccc2)c2cc(Cl)ccc21 [Diazepam] | 1.1
11 | NC(=O)N1c2ccccc2CC(=O)c2ccccc21 [Trileptal] | 1.13
12 | CC1C(c2ccccc2)OCCN1C (stereo not given) [Phendimetrazine] | 2.52
13 | CCCC(=O)O [Butanoic acid] | 10.2
14 | CC12CCC3C(CCC4CC(O)CCC43C)C1CCC2=O (stereo not given) [Androsterone] | 4.62
15 | CCC1=C(C)CN(C(=O)NCCc2ccc(S(=O)(=O)NC(=O)NC3CCC(C)CC3)cc2)C1=O (stereo not given) [Glimepiride] | 1.05
16 | CC(=O)OCC(=O)NCCCOc1cccc(CN2CCCCC2)c1 [Roxane] | 3.01
17 | O=C(O)c1ccc[nH]1 [Pyrrole-2-carboxylic acid] | 5.66
18 | CC(C)CC(NC(=O)C(O)C(N)Cc1ccccc1)C(=O)O (stereo not given) [Bestatin] | 5.98
19 | CCN1CCCC1CNC(=O)c1cc(S(N)(=O)=O)ccc1OC (stereo not given) [Levosulpiride] | 4.37
20 | CC(=O)NCCCCNCCCN [N8-Acetylspermidine] | 8.87
21 | Cc1cn(C2CC(O)C(COP(=O)(O)O)O2)c(=O)[nH]c1=O (stereo not given) [Thymidine 5'-monophosphate] | 8.28
22 | CNCCC(Oc1cccc2ccccc12)c1cccs1 (stereo not given) [Duloxetine] | 2.6
23 | O=c1c(-c2ccc(O)cc2)coc2cc(O)cc(O)c12 [4,5,7-Trihydroxyisoflavone] | 1.27

Row | Compound | LC retention time [min]
24 | Cc1nc2ccccn2c(=O)c1CCN1CCC(C(=O)c2ccc(F)cc2)CC1 [Pirenperone] | 3.5
25 | O=C(O)C1CCC(C(=O)O)CC1 (stereo not given) [1,4-Cyclohexanedicarboxylic acid] | 1.56
26 | Cc1cc2nc[nH]c2cc1C [5,6-Dimethylbenzimidazole] | 1.82
27 | CCCCCCCCCCCCCCCCC(=O)O [Heptadecanoic acid] | 3.01
28 | Cc1cccc(Nc2ccncc2S(=O)(=O)NC(=O)NC(C)C)c1 [Torasemide] | 1.45
29 | CCOC(=O)C(C)Oc1ccc(Oc2nc3ccc(Cl)cc3o2)cc1 (stereo not given) [Fenoxaprop-P-ethyl] | 1.01
30 | CC(C)=CC(=O)NCC(=O)O [3-Methylcrotonylglycine] | 2.95
31 | CC(C)=CCCC(C)O (stereo not given) [6-Methyl-5-hepten-2-ol] | 7.3
32 | Oc1ccc2c3c1OC1c4[nH]c5ccccc5c4CC4(O)C(C2)N(CC2CC2)CCC314 (stereo not given) [Naltrindole] | 4.45
33 | NC(=O)NCCC(=O)O [3-Ureidopropionic acid] | 5.6
34 | O=S(=O)(O)CCNC(CO)(CO)CO [TES] | 7.7
35 | CNc1ncnc2c1ncn2C1OC(CO)C(O)C1O (stereo not given) [6-Methyladenosine] | 3.56
36 | CN1CCN(c2nc3cc(C(F)(F)F)ccc3n3cccc23)CC1 | 2.21
37 | CC(=O)NCC1CN(c2ccc(N3CCOCC3)c(F)c2)C(=O)O1 (stereo not given) [Linezolide] | 1.15
38 | Oc1cc(O)c2c(c1)OC(c1cc(O)c(O)c(O)c1)C(O)C2 (stereo not given) [Epigallocatechin] | 10.2
39 | O=c1cc(-c2ccc(O)cc2)oc2c(C3OC(CO)C(O)C(O)C3O)c(O)cc(O)c12 (stereo not given) [Vitexin] | 5.33
40 | NC(CC(=O)O)C(=O)NC(CCC(=O)O)C(=O)O (stereo not given) [Asp-Glu] | 9.47
41 | Nc1nc2c(ncn2C2OC(CO)C(O)C2O)c(=O)[nH]1 (stereo not given) [Guanosine] | 7.33
42 | CCN1CCCC1CNC(=O)c1cc(S(=O)(=O)CC)c(N)cc1OC (stereo not given) [Amisulpride] | 2.76
43 | CC(C)(C#N)c1cc(Cn2cncn2)cc(C(C)(C)C#N)c1 [Anastrozole] | 0.98
44 | CNC(CC(=O)O)C(=O)O (stereo not given) [N-Methylaspartic acid] | 2.53
45 | CC1(C)CC1C(=O)NC(=CCCCCSCC(N)C(=O)O)C(=O)O (stereo not given) [Cilastatin] | 7.63
